Like-named read-outs stand apart in the source and are kept apart here.
Columns and labels:
[1] = tested on: Boophilus microplus; assay: Boophilus microplus injection test; assay type: in vivo; conditions: application rate, injection into engorged adult female cattle ticks, after 7 days
Description: 1. Boophilus microplus—Injection Test Solvent: dimethyl sulphoxide
To produce a suitable preparation of active compound, 10 mg of active compound are mixed with 0.5 ml of solvent and the concentrate is diluted with solvent to the desired concentration.
1 μl of the active compound solution is injected into the abdomen of 5 engorged adult female cattle ticks (Boophilus microplus). The animals are transferred into dishes and kept in a climate-controlled room.
Efficacy is assessed after 7 days by laying of fertile eggs. Eggs which are not visibly fertile are stored in a climate-controlled cabinet until the larvae hatch after about 42 days. An efficacy of 100% means that none of the ticks has laid any fertile eggs; 0% means that all the eggs are fertile.

[2] = tested on: Tetranychus urticae; assay: Tetranychus urticae spray test, OP-resistant (bean plants); assay type: in vivo; conditions: application rate 20 ppm, after 7 days
Description: 5. Tetranychus urticae-Spray Test, OP-Resistant Solvent: 7 parts by weight of dimethylformamide Emulsifier: alkylaryl polyglycol ether
(§1) To produce a suitable preparation of active compound, 1 part by weight of active compound is dissolved using the stated parts by weight of solvent and made up with water containing an emulsifier concentration of 1000 ppm until the desired concentration is attained. To produce further test concentrations, the preparation is diluted with emulsifier-containing water. If the addition of ammonium salts or/and penetrants is required, these are each added in a concentration of 1000 ppm to the preparation solution.
Bean plants (Phaseolus vulgaris) heavily infested by all stages of the greenhouse red spider mite (Tetranychus urticae) are sprayed with an active compound preparation of the desired concentration.
After 7 days, the efficacy in % is determined. 100% means that all the spider mites have been killed; 0% means that none of the spider mites have been killed.

[3] = tested on: Meloidogyne incognita; assay: Meloidogyne incognita test (soil drench, lettuce); assay type: in vivo; conditions: application rate 8 ppm, after 21 days, lettuce in soil (loamy sand)
Description: 7. Meloidogyne incognita—Test Solvent: 7 parts by weight of dimethylformamide Emulsifier: 2.5 parts by weight of alkylaryl polyglycol ether To produce a suitable preparation of active compound, 1 part by weight of active compound is mixed with the stated amounts of solvent and emulsifier, and the concentrate is diluted with water to the desired concentration, where the volume of soil to be drenched has to be taken into account. Here, it has to be made sure that a concentration of 20 ppm of emulsifier in the soil is not exceeded. To produce further test concentrations, the mixture is diluted with water. Pots filled with soil (loamy sand) are watered with the active compound solution. An egg/larvae suspension of the southern root-knot nematode (Meloidogyne incognita) is added, lettuce seeds are scattered on the surface of the soil and covered with quartz sand. The lettuce seeds germinate and the plants develop. The galls develop on the roots. After 21 days, the nematicidal efficacy in % is determined by the formation of galls. 100% means that no galls were found; 0% means that the number of galls on the treated plants corresponds to that of the untreated control.

[4] = logP by reversed-phase HPLC (EEC Directive 79/831 Annex V.A8); assay type: physicochemical; conditions: reversed-phase C18 HPLC column
Description: The logP values were determined in accordance with EEC Directive 79/831 Annex V.A8 by HPLC (High Performance Liquid Chromatography) using reversed-phase columns (C 18) by the following methods:
^[a] The LC-MS determination in the acidic range was effected at pH 2.7 with 0.1% aqueous formic acid and acetonitrile (contains 0.1% formic acid) as eluents; linear gradient from 10% acetonitrile to 95% acetonitrile. Called logP (HCOOH) in the table.
^[b] LC-MS determination in the neutral range was effected at pH 7.8 with 0.001 molar aqueous ammonium hydrogencarbonate solution and acetonitrile as eluents; linear gradient from 10% acetonitrile to 95% acetonitrile. Called logP (neutral) in the table.
Calibration was effected with unbranched alkan-2-ones (having 3 to 16 carbon atoms) with known logP values (logP values determined on the basis of the retention times by linear interpolation between two successive alkanones).

[5] = tested on: Meloidogyne incognita; assay: Meloidogyne incognita test (sand, lettuce, solvent acetone); assay type: in vivo; conditions: application rate 20 ppm, after 14 days, lettuce in sand
Description: 2. Meloidogyne incognita Test Solvent: 125.0 parts by weight of acetone To produce a suitable preparation of active compound, 1 part by weight of active compound is mixed with the stated amount of solvent and the concentrate is diluted with water to the desired concentration. Vessels are filled with sand, active compound solution, an egg/larvae suspension of the southern root-knot nematode (Meloidogyne incognita) and lettuce seeds. The lettuce seeds germinate and the plants develop. The galls develop on the roots. After 14 days, the nematicidal efficacy in % is determined by the formation of galls. 100% means that no galls were found; 0% means that the number of galls on the treated plants corresponds to the untreated control.

[6] = tested on: Tetranychus urticae; assay: Tetranychus urticae spray test, OP-resistant (bean leaf discs); assay type: in vivo; conditions: application rate 500 g/ha, after 6 days
Description: 4. Tetranychus urticae—Spray Test, OP-Resistant Solvent: 78.0 parts by weight of acetone • • 1.5 parts by weight of dimethylformamide Emulsifier: alkylaryl polyglycol ether
as §1, with “water.” for “water. If the addition of ammonium salts or/and penetrants is required, these are each added in a concentration of 1000 ppm to the preparation solution.”
Discs of bean leaves (Phaseolus vulgaris) infested with all stages of the greenhouse red spider mite (Tetranychus urticae) are sprayed with an active compound preparation of the desired concentration.
After 6 days, the efficacy in % is determined. 100% means that all the spider mites have been killed; 0% means that none of the spider mites have been killed.

[7] = tested on: Tetranychus urticae; assay: Tetranychus urticae drench test, OP-resistant; assay type: in vivo; conditions: application rate 4 ppm, after 14 days, bean plants in soil
Description: 6. Tetranychus urticae—Drench Test, OP-Resistant Solvent: 7 parts by weight of dimethylformamide Emulsifier: 2 parts by weight of alkylaryl polyglycol ether
To produce a suitable preparation of active compound, 1 part by weight of active compound is mixed with the stated amounts of solvent and emulsifier, and the concentrate is diluted with water to the desired concentration, where the volume of soil to be drenched has to be taken into account. Here, it has to be made sure that a concentration of 40 ppm of emulsifier in the soil is not exceeded. To produce further test concentrations, the mixture is diluted with water.
Bean plants (Phaseolus vulgaris) in pots filled with soil, which plants are heavily infested by all stages of the greenhouse red spider mite (Tetranychus urticae), are watered with an active compound preparation of the desired concentration.
After 14 days, the efficacy in % is assessed. 100% means that all spider mites have been killed; 0% means that none of the spider mites have been killed.

[8] = tested on: Panonychus ulmi; assay: Panonychus ulmi spray test; assay type: in vivo; conditions: application rate 20 ppm, after 14 days, plum trees
Description: 8. Panonychus ulmi—Spray Test Solvent: 7 parts by weight of dimethylformamide Emulsifier: alkylaryl polyglycol ether To produce a suitable preparation of active compound, 1 part by weight of active compound is dissolved in the parts by weight of solvent stated and filled with water containing an emulsifier concentration of 1000 ppm until the desired concentration is reached. To prepare further test concentrations, the mixture is diluted with emulsifier-containing water. If the addition of ammonium salts and/or penetrants (rapeseed oil methyl ester) is required, these are, after dilution of the finished preparation solution, added using a pipette, at a concentration of in each case 1000 ppm. Plum trees (Prunus domestica), infested by a mixed population of the European red mite (Panonychus ulmi) are treated by spraying with the active compound preparation of the desired concentration. After 14 days, the kill in % is determined. 100% means that all spider mites have been killed; 0% means that none of the spider mites have been killed.

Q: Which results are given for `Cc1cc(F)c(-c2cc(=O)n(C)c(=O)n2C)cc1[S+]([O-])CC(F)(F)F` (stereo not drawn) [Example I-1, 6-{2-Fluoro-4-methyl-5-[(2,2,2-trifluoroethyl)sulphinyl]phenyl}-1,3-dimethylpyrimidine-2,4(1H,3H)-dione]?
A: efficacy (no fertile eggs laid) [1]: 100%; efficacy (spider mites killed) [2]: 100%; nematicidal efficacy (formation of galls) [3]: 90%; chromatographic logP ([4]; acidic range, pH 2.7, 0.1% aqueous formic acid/acetonitrile, read-out: logP (HCOOH) = logP[a]): 1.77; chromatographic logP ([4]; neutral range, pH 7.8, 0.001 molar aqueous ammonium hydrogencarbonate/acetonitrile, read-out: logP (neutral) = logP[b]): 1.75; nematicidal efficacy (formation of galls) [5]: 100%; efficacy (spider mites killed) [6]: 100%; efficacy (spider mites killed) [7]: 100%; efficacy (kill of spider mites) [8]: 100%
